The first assay addresses T1, NO synthase (Rattus norvegicus, UniProt P29476).
T1 construct: the supernatant was then removed by decantation and frozen in portions at −80° C; from tissue; host or cells: rat cerebellum, 20,000 g supernatant of homogenate
Kind of assay: HTS-NOS assay (NOS assay): conversion of radioactive arginine, cation-exchanger filter plate. As to conditions: 10 μM. Type of assay: biochemical. The method in brief:
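Percent inhibition was derived by comparing remaining radioactive arginine with compound-free controls. Arginine retained on phosphate cation-exchanger filters was counted after citrulline washout, following a 5-60 min room-temperature (25 °C) reaction of labelled arginine, NADPH-containing medium and rat cerebellar homogenate supernatant.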
`[C-]#[N+]CCCCCCNc1c(-c2ccccc2F)nc2cc(C)cc(C)n12` [Example 116, {6-[2-(2-Fluoro-phenyl)-5,7-dimethyl-imidazo[1,2-a]pyridin-3-ylamino]-hexyl}-methylidyne-ammonium]: the “HTS-NOS assay: % inhibition (10 μM)” value is 60%.
Same read-out and setting: as for `[C-]#[N+]CCCCCCNc1c(-c2cc3ccccc3c3ccccc23)nc2cc(C)ccn12` [Example 118, Methylidyne-[6-(7-methyl-2-phenanthren-9-yl-imidazo[1,2-a]pyridin-3-ylamino)-hexyl]-ammonium], the figure is 56%; as for `C#[N+]CCCCCCNc1c(-c2cccc3ccccc23)nc2cc(C)ccn12` [Example 122, Methylidyne-[6-(7-methyl-2-naphthalen-1-yl-imidazo[1,2-a]pyridin-3-ylamino)-hexyl]-ammonium], 53%.
Same read-out and setting: as for `C#[N+]CCCCCCNc1c(-c2cccc3ccccc23)nc2cc(C)cc(C)n12` [Example 128, [6-(5,7-Dimethyl-2-naphthalen-1-yl-imidazo[1,2-a]pyridin-3-ylamino)-hexyl]-methylidyne-ammonium], the figure is 63%.
The same measure, in the same setting: to `[C-]#[N+]CCCCCCNc1c(-c2cccc(O)c2)nc2c(C)cccn12` [Example 131, {6-[2-(3-Hydroxy-phenyl)-8-methyl-imidazo[1,2-a]pyridin-3-ylamino]-hexyl}-methylidyne-ammonium] belongs 55%; to `[C-]#[N+]CCCCCCNc1c(-c2ccccc2Br)nc2cc(C)ccn12` [Example 137, {6-[2-(2-Bromo-phenyl)-7-methyl-imidazo[1,2-a]pyridin-3-ylamino]-hexyl}-methylidyne-ammonium], 52%.

Still in this assay, the particulars now being: read-out: HTS-NOS assay: % inhibition (10 μM).
Turning to `Cc1cccn2c(NC(C)(C)CC(C)(C)C)c(-c3cc4ccccc4o3)nc12` [Example 115, (2-Benzofuran-2-yl-8-methyl-imidazo[1,2-a]pyridin-3-yl)-(1,1,3,3-tetramethyl-butyl)-amine], the inhibition (in general, how much of the control response was suppressed) at 10 µM was found to be 59%.
Regarding `COc1cccc(-c2nc3c(C)cccn3c2NC(C)(C)CC(C)(C)C)c1OC` [Example 117, [2-(2,3-Dimethoxy-phenyl)-8-methyl-imidazo[1,2-a]pyridin-3-yl]-(1,1,3,3-tetramethyl-butyl)-amine], the inhibition at 10 µM was determined as 52%.
Same read-out and setting: to `CC(C)(C)Nc1c(-c2ccc(C(=O)O)s2)nc2cnccn12` [Example 119, 5-(3-Tert-butylamino-imidazo[1,2-a]pyrazin-2-yl)-thiophene-2-carboxylic acid] belongs 56%.
Same read-out and setting: to `Cc1cccn2c(NC(C)(C)C)c(-c3ccccn3)nc12` [Example 120, Tert-butyl-(8-methyl-2-pyridin-2-yl-imidazo[1,2-a]pyridin-3-yl)-amine] belongs 56%; to `Cc1cccn2c(NC3CCCCC3)c(-c3ccco3)nc12` [Example 121, Cyclohexyl-(2-furan-2-yl-8-methyl-imidazo[1,2-a]pyridin-3-yl)-amine], 53%.
The same measure, in the same setting: as for `Cc1cccn2c(NC(C)(C)C)c(C3CCCCC3)nc12` [Example 123, Tert-butyl-(2-cyclohexyl-8-methyl-imidazo[1,2-a]pyridin-3-yl)-amine], the figure is 53%; as for `Cc1ccc2nc(-c3ccncc3)c(NC(C)(C)CC(C)(C)C)n2c1` [Example 124, (6-Methyl-2-pyridin-4-yl-imidazo[1,2-a]-pyridin-3-yl)-(1,1,3,3-tetramethyl-butyl)-amine], 68%.
On to `Cc1ccc2nc(-c3cccnc3)c(NC(C)(C)C)n2c1` [Example 125, Tert-butyl-(6-methyl-2-pyridin-3-yl-imidazo[1,2-a]pyridin-3-yl)-amine], for which the inhibition at 10 µM is 51%.
Still for that read-out and setting: as for `Cc1ccn2c(NC(C)(C)CC(C)(C)C)c(-c3cccnc3)nc2n1` [Example 126, (7-Methyl-2-pyridin-3-yl-imidazo[1,2-a]-pyrimidin-3-yl)-(1,1,3,3-tetramethyl-butyl)-amine], the figure is 50%; as for `Cc1ccc2nc(-c3ccc(C(=O)O)s3)c(NC(C)(C)C)n2c1` [Example 127, 5-(3-Tert-butylamino-6-methyl-imidazo[1,2-a]pyridin-2-yl)-thiophene-2-carboxylic acid], 52%; as for `Cc1cc(C)n2c(Nc3c(C)cccc3C)c(-c3cccc(O)c3)nc2c1` [Example 129, 3-[3-(2,6-Dimethyl-phenylamino)-5,7-dimethyl-imidazo[1,2-a]pyridin-2-yl]-phenol], 61%.
As for `Cc1ccccc1-c1nc2c(C)cccn2c1Nc1c(C)cccc1C` [Example 130, (2,6-Dimethyl-phenyl)-(8-methyl-2-o-tolyl-imidazo[1,2-a]pyridin-3-yl)-amine], the inhibition at 10 µM amounted to 58%.
For `Cc1ccn2c(Nc3c(C)cccc3C)c(-c3ccc(CO)o3)nc2n1` [Example 132, {5-[3-(2,6-Dimethyl-phenylamino)-7-methyl-imidazo[1,2-a]pyrimidin-2-yl]-furan-2-yl}-methanol], the inhibition at 10 µM was found to be 52%.
On the same count and under the same terms, as for `Cc1ccc(-c2nc3c(C)cccn3c2NC(C)(C)CC(C)(C)C)cc1` [Example 133, (8-Methyl-2-p-tolyl-imidazo[1,2-a]pyridin-3-yl)-(1,1,3,3-tetramethyl-butyl)-amine], the figure is 52%.
`Cc1ccc2nc(-c3ccc(Cl)cc3Cl)c(Nc3c(C)cccc3C)n2c1` [Example 134, [2-(2,4-Dichlorophenyl)-6-methyl-imidazo[1,2-a]pyridin-3-yl]-(2,6-dimethyl-phenyl)-amine]: the inhibition at 10 µM stood at 56%.
Same read-out and setting: to `CCCCNc1c(-c2ccc(Cl)cc2Cl)nc2ccc(C)cn12` [Example 135, Butyl-[2-(2,4-dichloro-phenyl)-6-methyl-imidazo[1,2-a]pyridin-3-yl]-amine] belongs 50%; to `CCCCNc1c(-c2ccc(N(C)C)c3ccccc23)nc2cnccn12` [Example 136, Butyl-[2-(4-dimethylamino-naphthalen-1-yl)-imidazo[1,2-a]pyrazin-3-yl]-amine], 56%; to `CCCCNc1c(-c2ccccc2OC)nc2ccc(C)cn12` [Example 138, Butyl-[2-(2-methoxy-phenyl)-6-methyl-imidazo[1,2-a]pyridin-3-yl]-amine], 52%.
For the compound `Cc1cccn2c(NC(C)(C)CC(C)(C)C)c(C3CCCCC3)nc12` [Example 139, (2-Cyclohexyl-8-methyl-imidazo[1,2-a]-pyridin-3-yl)-(1,1,3,3-tetramethyl-butyl)-amine], the inhibition at 10 µM came to 51%.
Same read-out and setting: as for `Cc1ccn2c(NC3CCCCC3)c(-c3ccccn3)nc2c1` [Example 140, Cyclohexyl-(7-methyl-2-pyridin-2-yl-imidazo[1,2-a]pyridin-3-yl)-amine], the figure is 55%.
Still for that read-out and setting: to `Cc1ccn2c(NC3CCCCC3)c(-c3ccco3)nc2c1` [Example 141, Cyclohexyl-(2-furan-2-yl-7-methyl-imidazo[1,2-a]pyridin-3-yl)-amine] belongs 64%.
On the same count and under the same terms, to `COC(=O)CNc1c(C2CCCCC2)nc2cc(C)cc(C)n12` [Example 142, (2-Cyclohexyl-5,7-dimethyl-imidazo[1,2-a]-pyridin-3-ylamino)-acetic acid methyl ester] belongs 59%; to `CC(=O)N(c1c(-c2ccco2)nc2cc(C)cc(C)n12)C(C)(C)CC(C)(C)C` [Example 143, N-(2-furan-2-yl-5,7-dimethyl-imidazo[1,2-a]pyridin-3-yl)-N-(1,1,3,3-tetramethylbutyl)-acetamide], 68%; to `CC(=O)N(c1c(-c2cccnc2)nc2cc(C)ccn12)C(C)(C)C` [Example 144, N-tert-butyl-N-(7-methyl-2-pyridin-3-yl-imidazo[1,2-a]pyridin-3-yl)-acetamide], 59%.
As to `CC(=O)N(c1c(-c2ccco2)nc2cc(C)cc(C)n12)C(C)(C)C` [Example 145, N-tert-butyl-N-(2-furan-2-yl-5,7-dimethyl-imidazo[1,2-a]pyridin-3-yl)-acetamide], the inhibition at 10 µM was 66%.
Same read-out and setting: to `CC(=O)N(c1c(-c2ccncc2)nc2cc(C)cc(C)n12)C(C)(C)CC(C)(C)C` [Example 146, N-(5,7-dimethyl-2-pyridin-4-yl-imidazo[1,2-a]pyridin-3-yl)-N-(1,1,3,3-tetramethyl-butyl)-acetamide] belongs 59%; to `CC(=O)N(c1c(-c2cccnc2)nc2cc(C)cc(C)n12)C(C)(C)CC(C)(C)C` [Example 147, N-(5,7-dimethyl-2-pyridin-3-yl-imidazo[1,2-a]pyridin-3-yl)-N-(1,1,3,3-tetramethyl-butyl)-acetamide], 68%.
Still for that read-out and setting: as for `CC(=O)N(c1c(C)cccc1C)c1c(-c2ccccc2C)nc2cc(C)cc(C)n12` [Example 148, N-(2,6-dimethyl-phenyl)-N-(5,7-dimethyl-2-o-tolyl-imidazo[1,2-a]pyridin-3-yl)-acetamide], the figure is 57%; as for `CC(=O)N(c1c(-c2ccco2)nc2cc(C)ccn12)C(C)(C)CC(C)(C)C` [Example 149, N-(2-furan-2-yl-7-methyl-imidazo[1,2-a]pyridin-3-yl)-N-(1,1,3,3-tetramethylbutyl)-acetamide], 55%; as for `CC(=O)N(c1c(C)nc2cc(C)cc(C)n12)C(C)(C)CC(C)(C)C` [Example 150, N-(1,1,3,3-tetramethyl-butyl)-N-(2,5,7-trimethyl-imidazo[1,2-a]pyridin-3-yl)-acetamide], 60%.
Still for that read-out and setting: as for `CC(=O)N(c1c(-c2cccs2)nc2cc(C)ccn12)C1CCCCC1` [Example 151, N-cyclohexyl-N-(7-methyl-2-thiophen-2-yl-imidazo[1,2-a]pyridin-3-yl)-acetamide], the figure is 65%; as for `CC(=O)N(c1c(C)nc2cc(C)cc(C)n12)C(C)(C)C` [Example 152, N-tert-butyl-N-(2,5,7-trimethyl-imidazo[1,2-a]pyridin-3-yl)-acetamide], 66%.

The values above are taken from US20040023972A1, “Use of substituted imidazo[1,2-a]-pyridin-, -pyrimidin-and-pyrazin-3-yl-amine derivatives in the preparation of medicaments for inhibiting NOS” (Gruenenthal GmbH, priority 2000, published 2004).
